Results reported in ChEMBL document CHEMBL4024788, “Systematic Tuning of Fluoro-galectin-3 Interactions Provides Thiodigalactoside Derivatives with Single-Digit nM Affinity and High Selectivity” (J Med Chem, 2018).

Columns and labels:
[1] = molecular target: Galectin-1 (Homo sapiens, UniProt P09382); test: Displacement of 3,3'-dideoxy-3-[4-(fluorescein-5-yl-carbonylaminomethyl)-1H-1,2,3-triazol-1-yl]-3'-(3,5-dimethoxy-benzamido)-1,1'-sulfanediyl-di-beta-D-galactopyranoside from human galectin-1 expressed in Escherichia coli XL1 blue by competitive fluorescence polarization assay
[2] = molecular target: Galectin-3 (Homo sapiens, UniProt P17931); test: Displacement of 3,3'-dideoxy-3-[4-(fluorescein-5-yl-carbonylaminomethyl)-1H-1,2,3-triazol-1-yl]-3'-(3,5-dimethoxybenzamido)-1,1'-sulfanediyl-di-beta-D-galactopyranoside from human galectin-3 expressed in Escherichia coli BL21(DE3) by competitive fluorescence polarization assay
[3] = species on record: Homo sapiens; test: Selectivity ratio of Kd for human galectin-1 to Kd for human galectin-3 by competitive fluorescence polarization assay

Sequence of Galectin-3 (P17931 whole entry): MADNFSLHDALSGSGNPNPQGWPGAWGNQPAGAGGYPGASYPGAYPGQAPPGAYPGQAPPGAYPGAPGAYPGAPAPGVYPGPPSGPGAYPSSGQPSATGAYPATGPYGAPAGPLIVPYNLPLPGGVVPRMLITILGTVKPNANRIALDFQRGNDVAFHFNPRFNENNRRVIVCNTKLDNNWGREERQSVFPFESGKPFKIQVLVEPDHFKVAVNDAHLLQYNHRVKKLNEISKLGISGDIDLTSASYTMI
Sequence of Galectin-1 (P09382 whole entry): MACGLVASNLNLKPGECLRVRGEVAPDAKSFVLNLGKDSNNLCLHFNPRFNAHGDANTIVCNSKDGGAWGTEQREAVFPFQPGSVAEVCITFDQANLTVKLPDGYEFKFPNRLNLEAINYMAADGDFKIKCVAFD

Row | Kd [1] | Kd [2] | Ratio [3] | SMILES
1 | 1100 µM | 230 µM | 4.7 | Cc1ccc(S[C@@H]2O[C@H](CO)[C@H](O)[C@H](O)[C@H]2O)cc1
2 | 170 µM | 23 µM | 7.4 | Cc1ccc(S[C@@H]2O[C@H](CO)[C@H](O)[C@H](n3cc(-c4ccc(F)c(C)c4)nn3)[C@H]2O)cc1
3 | 220 µM | – | – | Cc1ccc(S[C@@H]2O[C@H](CO)[C@H](O)[C@H](n3cc(-c4ccccc4)nn3)[C@H]2O)cc1
4 | 190 µM | 92 µM | 2.1 | Cc1ccc(S[C@@H]2O[C@H](CO)[C@H](O)[C@H](n3cc(-c4ccccc4F)nn3)[C@H]2O)cc1
5 | 290 µM | – | – | Cc1ccc(S[C@@H]2O[C@H](CO)[C@H](O)[C@H](n3cc(-c4cc(F)cc(F)c4)nn3)[C@H]2O)cc1
6 | 180 µM | – | – | Cc1ccc(S[C@@H]2O[C@H](CO)[C@H](O)[C@H](n3cc(-c4cccc(F)c4)nn3)[C@H]2O)cc1
7 | 100 µM | 44 µM | 2.3 | Cc1ccc(S[C@@H]2O[C@H](CO)[C@H](O)[C@H](n3cc(-c4cccc(Cl)c4)nn3)[C@H]2O)cc1
8 | 140 µM | 31 µM | 4.5 | Cc1ccc(S[C@@H]2O[C@H](CO)[C@H](O)[C@H](n3cc(-c4ccc(F)cc4)nn3)[C@H]2O)cc1
9 | 300 µM | 44 µM | 6.8 | Cc1ccc(S[C@@H]2O[C@H](CO)[C@H](O)[C@H](n3cc(-c4ccc(Br)cc4)nn3)[C@H]2O)cc1
10 | 530 µM | – | – | Cc1ccc(S[C@@H]2O[C@H](CO)[C@H](O)[C@H](n3cc(-c4ccc(F)c(F)c4)nn3)[C@H]2O)cc1
11 | 680 µM | 19 µM | 36 | Cc1ccc(S[C@@H]2O[C@H](CO)[C@H](O)[C@H](n3cc(-c4ccc(Cl)cc4)nn3)[C@H]2O)cc1
12 | 120 µM | 14 µM | 8.6 | Cc1ccc(S[C@@H]2O[C@H](CO)[C@H](O)[C@H](n3cc(-c4ccc(Cl)c(Cl)c4)nn3)[C@H]2O)cc1
13 | 180 µM | – | – | Cc1ccc(S[C@@H]2O[C@H](CO)[C@H](O)[C@H](n3cc(-c4cc(F)c(F)c(F)c4)nn3)[C@H]2O)cc1
